Results on 1 molecule are retold here after patent US20230355599A1, “BIOMARKERS FOR CBL, AND COMPOSITIONS AND METHODS FOR THEIR USE” (NURIX THERAPEUTICS, INC., priority 2022, published 2023).

For this test, the system named is phosphorylated PLCγ2. Put plainly: Phosphorylated PLCγ2 in cynomolgus macaque CD8+ T cells from whole blood in vitro (flow cytometry). The class given is cell-based. The following applies: Macaca fascicularis, T-cell, whole blood from six cynomolgus macaques, 2 hrs 37° C., 2 μg/mL anti-CD3 & anti-CD28 + crosslinker 60 minutes, read-out: Average mean EC50±standard deviation, phosphorylated PLCγ2. Here is the method: To assess these candidate clinical proximal biomarkers of Cbl-b inhibition on T cells, pharmacodynamic analysis was performed. Whole blood was obtained from cynomolgus macaque donors, then incubated with increasing concentrations of Compound 23. The response to Cbl-b inhibition on phosphorylated HS1, ZAP70 and PLCγ2 was measured in CD8^+ T cells using flow cytometry. This technique is highly quantitative and can measure multiple phosphorylation markers in different cell populations within the same sample.
DMSO (Dimethyl sulfoxide) was used to reconstitute Compound 23. Final concentration of DMSO was 0.05% in media for in vitro assays. […]
Stained cells were run on an Attune NxT Acoustic Focusing Flow Cytometer (Thermo Fisher, cat. No. A29004), and data was analyzed using FlowJo (v10.6.1) and GraphPad Prism (v8.00) software. Single lymphocytes were gated for CD8^+ cells (CD45^+/CD8^+) cells, and population frequencies were calculated for each population. The data is quantified by the percent positive. […] As protein becomes phosphorylated the fluorescence increases resulting in a larger fraction of the cells entering that gate. Each population was evaluated for % positive pY759-PLCγ2, pY397-HS1 levels, pY319/Syk (Y352)-ZAP70 levels.
(In general: A flow cytometer gives signals particle by particle.)

Molecules are shown by their SMILES.

In the case of `C[C@H]1CCCN(Cc2cc3c(c(C(F)(F)F)c2)CN(c2cccc([C@]4(c5nncn5C)C[C@@H](C)C4)c2)C3=O)C1` [Compound 23], the EC50 is 121 ± 37.4 nM.

As a reminder, the EC50 is the concentration that produces a half-maximal response.
